Reference: patent US20210369680A1, “METHODS OF TREATING DISEASES AND DISORDERS RESULTING FROM BETA CORONAVIRUS INFECTION” (T3D Therapeutics, Inc., priority 2020, published 2021)

Key:
[1] = Clinical DSST in subjects with mild-to-moderate dementia (Phase 2a); type: in vivo, human
Source text: Clinical DSST Data in Cognitively Impaired Subjects
DSST is a commonly used tests in clinical neuropsychology, and has been used to measure a range of cognitive functions including intact motor speed, attention, executive, and visuo-perceptual functions. Reference is made to Jaeger J. Digit Symbol Substitution Test: The Case for Sensitivity Over Specificity hi Neuropsychological Testing. J Clin Psychopharmacol. 2018; 38(5):513-519. doi:10.1097/JCP.0000000000000941, which is incorporated by reference with regard to the example. DSST scores were assessed in a randomized, parallel, 4-dose Phase 2a study in subjects with mild-to-moderate dementia (MMSE for mild 20-26, for moderate 14-19) before and after treatment with compound of Example 11. A total of 34 subjects were randomized to one of 4 doses of drug, 3 mg (n=8), 10 mg (n=9), 30 mg (n=9) or 90 mg (n=8) administered orally once-a-day for 14 days then followed-up at day 21 (7-days post-dosing discontinuation.
DSST scores are based on the number of correct substitutions in a fixed timeframe, and a higher score in the DSST denotes improvement. Data was collected at four time points for all subjects in each of the four dose groups: Prescreen (PS, one week before BL), baseline (BL), end-of-treatment (EOT) and follow-up (FU, one week after EOT). The DSST results averaged across all subjects at PS (14.1, SD=11.8) and BL (13.9, SD=12.5) were quite similar as would be expected. The larger standard deviations, and the wide range of scores (zero to 48) reflects the broad range of cognitive function in the 34 subjects in this trial. DSST averages per dose group at PS were: 3 mg, 13.88 (SD=10.83); 10 mg, 14.33 (SD=13.52); 30 mg, 18.78 (SD=14.52); and 90 mg, 8.88 (SD=6.56). The data is best described as averaged differences in individual results as it reduces variability. For all 34 subjects, the change in DSST score was −0.21 (SD=4.23) for (BL-PS), and 3.5 (SD=5.51) for (FU-EOT), with unpaired t-test p-value of 0.005. […]

human PPARγ = target: T1, human PPARγ (Homo sapiens, UniProt P37231); test: Human PPAR activation, transient transfection study in transfected CV-1 cells; type: cell-based
T1 construct: expressed in transfected cells; host or cells: CV-1 cells
T1 sequence (P37231 1-505): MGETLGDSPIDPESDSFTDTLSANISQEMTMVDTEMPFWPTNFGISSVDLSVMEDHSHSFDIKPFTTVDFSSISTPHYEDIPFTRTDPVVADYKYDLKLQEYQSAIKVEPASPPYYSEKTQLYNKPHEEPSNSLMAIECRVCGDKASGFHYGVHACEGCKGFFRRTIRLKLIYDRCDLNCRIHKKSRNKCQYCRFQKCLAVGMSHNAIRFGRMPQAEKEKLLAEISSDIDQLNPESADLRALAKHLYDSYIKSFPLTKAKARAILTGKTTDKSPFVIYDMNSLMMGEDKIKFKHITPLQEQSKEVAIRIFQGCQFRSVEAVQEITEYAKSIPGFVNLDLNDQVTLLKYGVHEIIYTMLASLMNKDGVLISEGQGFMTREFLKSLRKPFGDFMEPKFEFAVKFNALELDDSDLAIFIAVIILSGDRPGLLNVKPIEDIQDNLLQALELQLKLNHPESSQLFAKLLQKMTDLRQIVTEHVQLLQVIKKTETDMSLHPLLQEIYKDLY
Source text: (§1) Human PPAR Activation by Compound of Example 11 in Transient Transfection Study
(§2) Table 2 summarizes the results of studies performed in transfected CV-1 cells with three different lots of Compound of Example 11. […].

human PPARα = target: T2, human PPARα (Homo sapiens, UniProt Q07869); test: as above; type: cell-based
T2 construct: expressed in transfected cells; host or cells: CV-1 cells
T2 sequence (Q07869 1-468): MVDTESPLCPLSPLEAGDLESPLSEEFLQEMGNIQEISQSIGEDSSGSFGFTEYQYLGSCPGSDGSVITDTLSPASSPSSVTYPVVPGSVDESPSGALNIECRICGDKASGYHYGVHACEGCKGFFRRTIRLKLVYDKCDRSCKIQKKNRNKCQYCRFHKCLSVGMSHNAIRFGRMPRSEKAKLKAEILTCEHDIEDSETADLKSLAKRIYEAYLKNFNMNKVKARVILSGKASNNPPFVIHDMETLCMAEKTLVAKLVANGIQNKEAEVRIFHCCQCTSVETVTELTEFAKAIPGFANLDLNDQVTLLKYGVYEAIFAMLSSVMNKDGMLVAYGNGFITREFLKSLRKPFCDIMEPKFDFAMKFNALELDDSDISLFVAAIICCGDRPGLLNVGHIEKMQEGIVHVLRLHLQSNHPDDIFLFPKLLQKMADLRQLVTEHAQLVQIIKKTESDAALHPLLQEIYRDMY
Source text: as §1, §2

P-glycoprotein (P-gp) = target: T3, P-glycoprotein (P-gp) (Homo sapiens, UniProt P08183); test: Effect of P-gp inhibitor verapamil on Caco-2 permeability; type: in vitro ADME
T3 construct: endogenous in cells; host or cells: Caco-2 cells
T3 sequence (P08183 whole entry): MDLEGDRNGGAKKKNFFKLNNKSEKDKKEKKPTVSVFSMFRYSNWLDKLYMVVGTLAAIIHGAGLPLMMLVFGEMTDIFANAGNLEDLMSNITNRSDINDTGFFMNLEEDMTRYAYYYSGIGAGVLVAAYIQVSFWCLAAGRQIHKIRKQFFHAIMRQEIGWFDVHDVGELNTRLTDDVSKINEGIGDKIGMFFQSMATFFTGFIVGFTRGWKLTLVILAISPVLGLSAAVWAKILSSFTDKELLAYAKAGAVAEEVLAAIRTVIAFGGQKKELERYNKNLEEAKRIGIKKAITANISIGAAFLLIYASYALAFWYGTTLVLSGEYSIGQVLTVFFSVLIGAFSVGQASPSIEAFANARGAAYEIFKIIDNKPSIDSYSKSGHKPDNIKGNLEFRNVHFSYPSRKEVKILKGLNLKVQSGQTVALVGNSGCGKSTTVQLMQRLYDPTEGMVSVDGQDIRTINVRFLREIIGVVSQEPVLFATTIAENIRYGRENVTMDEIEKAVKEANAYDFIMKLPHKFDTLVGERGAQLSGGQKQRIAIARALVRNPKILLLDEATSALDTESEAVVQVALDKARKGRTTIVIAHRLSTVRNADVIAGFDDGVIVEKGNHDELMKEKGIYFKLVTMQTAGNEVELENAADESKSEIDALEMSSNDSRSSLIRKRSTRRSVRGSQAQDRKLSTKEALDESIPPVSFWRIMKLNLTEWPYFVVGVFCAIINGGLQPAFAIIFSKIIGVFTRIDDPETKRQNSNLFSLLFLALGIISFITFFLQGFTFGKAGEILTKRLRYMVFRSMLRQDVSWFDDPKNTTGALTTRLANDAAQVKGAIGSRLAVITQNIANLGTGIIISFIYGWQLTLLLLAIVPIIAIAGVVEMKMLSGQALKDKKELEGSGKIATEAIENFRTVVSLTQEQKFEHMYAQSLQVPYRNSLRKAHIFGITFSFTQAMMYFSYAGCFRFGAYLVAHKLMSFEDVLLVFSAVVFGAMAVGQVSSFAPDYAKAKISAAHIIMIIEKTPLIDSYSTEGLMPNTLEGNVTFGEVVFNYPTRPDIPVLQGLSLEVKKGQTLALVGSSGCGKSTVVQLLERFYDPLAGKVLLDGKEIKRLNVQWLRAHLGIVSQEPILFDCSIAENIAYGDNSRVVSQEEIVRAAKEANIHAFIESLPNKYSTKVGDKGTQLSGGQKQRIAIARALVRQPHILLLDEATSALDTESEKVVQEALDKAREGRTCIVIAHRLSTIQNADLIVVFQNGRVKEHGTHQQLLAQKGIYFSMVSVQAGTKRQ
Source text: Example 18: Effect of P-gp Inhibitor Verapamil on Caco-2 Permeability of Compound of Example 11

CCc1oc(-c2ccc(OC)cc2)nc1CCOc1ccc2c(c1)CC[C@H]2CC(=O)[O-].[Na+] [Example 11, Sodium (S)-2-(5-(2-(5-ethyl-2-(4-methoxyphenyl)oxazol-4-yl)ethoxy)-2,3-dihydro-1H-inden-1-yl)acetate]
change in DSST score EOT-PS ([1]; 3 mg group): 0.57
change in DSST score FU-PS ([1]; 10 mg group): 3.14
change in DSST score (FU-EOT) ([1]; all 34 subjects): 3.5
Peak effect PPARγ (human PPARγ): 29.49
Emax (human PPARγ; CV-1, read-out: Average % maximal response PPARγ): 74%
Peak effect PPARα (human PPARα): 1.87
Emax (human PPARα; CV-1, average of three lots, read-out: Average % maximal response PPARα): 49%
Average % maximal response PPARα (human PPARα; average of three lots): significantly reduced
substrate for P-gp (P-glycoprotein (P-gp)): not a substrate
